Series [1] deals with hindpaw incision. The note with it: topical, cited from earlier work.
Series [2] relates to rat. Nature of the series: Orbital tightening (OT) after heptanol corneal abrasion injury, pre-clinical model of PRK. The series is classed as in vivo. The note with it: 24 hours post-injury; topical eye drops; FIG. 6B; abrasion increases OT scores. The protocol:
A unilateral corneal injury was performed using topical application of heptanol. FIG. 3 is a diagram of a corneal abrasion method using topical application 310 of heptanol performed on an anesthetized rat. A local anesthetic was applied to the eye 320 via ophthalmic drops. A small metal ring 330 was then secured to the corneal surface with petroleum jelly. Heptanol (10 μL) 340 was placed inside the ring for 90 seconds, the heptanol was removed from inside the ring with a cotton swab and the eye is rinsed profusely with saline. The loose corneal epithelium was then removed with a cotton applicator 350. FIG. 4 is a graph representing of acute hyperalgesia after corneal abrasion injury, illustrating that this method induces photophobia as well as hyperalgesia to ocular application of menthol. This method produces abrasions of relatively uniform size and depth, in contrast to other mechanical abrasion methods.
In various embodiments, topical (ophthalmic) application of the compositions described herein can reduce or eliminate the hyperalgesia produced by corneal abrasion in a pre-clinical model of PRK. […]
Doses of trans-resveratrol up to 4% (corresponding to up to […] in 10 μL) were tested. […] Topical application is efficacious, because resveratrol is very lipophilic and should be readily taken up into the tear film that covers the surface of the eye. […]

Series [3] deals with cultured trigeminal ganglion neurons. The conditions noted are these: caused by nerve growth factor exposure; cited from earlier work.
The conditions of series [4]: cited from earlier work.
Series [5] deals with sodium channels. The conditions noted are these: in vivo; cited from earlier work.
Series [6] deals with corneal epithelium. It counts as in vivo, rat. The note with it: capsaicin application, FIG. 5C. The source says:
Deeper wounds may remove the basement membrane and prevent reinnervation (at least in some strains of mice).

Molecules are shown by their SMILES.

As for `Oc1ccc(C=Cc2cc(O)cc(O)c2)cc1` (racemic) [resveratrol], the hyperalgesic priming entry in series [1] (14-days after incision) is listed as “prevents the full development”. Besides, the acute hyperalgesia entry in series [1] (following hindpaw incision) is given as “attenuates”. The “orbital tightening (OT) scores” value in series [2] was “dose-dependent trend for resveratrol to reverse this”. For the same molecule, the hyperexcitability of neurons result in series [3] was “reduce hyperexcitability”.
With `NC1=N[C@H](O)[C@H]2[C@H]3O[C@]4(O)O[C@@H]([C@@H](O)[C@@]2(N1)[C@@H]4O)[C@]3(O)CO` [TTX, tetrodotoxin], the “solubility in tear film” value in series [4] is recorded as “not soluble in tear film”. Also, the photophobia result in series [5] is listed as “can reduce the photophobia”.
As for `COc1cc(CNC(=O)CCCC/C=C/C(C)C)ccc1O` [capsaicin], in series [6], the “overall epithelial structure (H&E stain)” value is given as “does not alter overall epithelial structure”.

Values taken from patent US20210046018A1 (priority 2019, published 2021).
